Values after ≈ are worked out from the molar mass of the structure shown.
Tests used:
Format in all cases: functional
[1] = test system: Escherichia coli; assay: Antibacterial activity against Escherichia coli ATCC 25922 after 20 to 24 hrs by two-fold microdilution method
[2] = test system: Staphylococcus haemolyticus; assay: Antibacterial activity against Staphylococcus haemolyticus CICC 10373 after 20 to 24 hrs by two-fold microdilution method
[3] = test system: Streptococcus pneumoniae; assay: Antibacterial activity against Streptococcus pneumoniae ATCC 6305 after 20 to 24 hrs by two-fold microdilution method
[4] = test system: Staphylococcus epidermidis; assay: Antibacterial activity against Staphylococcus epidermidis ATCC 12228 after 20 to 24 hrs by two-fold microdilution method
[5] = test system: Enterococcus faecalis; assay: Antibacterial activity against Enterococcus faecalis ATCC 29212 after 20 to 24 hrs by two-fold microdilution method
[6] = test system: Staphylococcus aureus; assay: Antibacterial activity against methicillin-resistant Staphylococcus aureus 215073 clinical isolate after 20 to 24 hrs by two-fold microdilution method
[7] = test system: Staphylococcus aureus; assay: Antibacterial activity against methicillin-resistant Staphylococcus aureus 122045 clinical isolate after 20 to 24 hrs by two-fold microdilution method
[8] = test system: Staphylococcus aureus; assay: Antibacterial activity against methicillin-resistant Staphylococcus aureus 219236 clinical isolate after 20 to 24 hrs by two-fold microdilution method
[9] = test system: Staphylococcus aureus; assay: Antibacterial activity against methicillin-resistant Staphylococcus aureus 216054 clinical isolate after 20 to 24 hrs by two-fold microdilution method
[10] = test system: Staphylococcus aureus; assay: Antibacterial activity against methicillin-resistant Staphylococcus aureus 110910-2 clinical isolate after 20 to 24 hrs by two-fold microdilution method
[11] = test system: Staphylococcus aureus; assay: Antibacterial activity against methicillin-resistant Staphylococcus aureus 110414 clinical isolate after 20 to 24 hrs by two-fold microdilution method
[12] = test system: Staphylococcus aureus; assay: Antibacterial activity against methicillin-resistant Staphylococcus aureus 10281-2 clinical isolate after 20 to 24 hrs by two-fold microdilution method
[13] = test system: Staphylococcus aureus; assay: Antibacterial activity against methicillin-resistant Staphylococcus aureus GLH14 clinical isolate after 20 to 24 hrs by two-fold microdilution method
[14] = test system: Staphylococcus aureus; assay: Antibacterial activity against methicillin-resistant Staphylococcus aureus 1215028 clinical isolate after 20 to 24 hrs by two-fold microdilution method
[15] = test system: Staphylococcus aureus; assay: Antibacterial activity against methicillin-resistant Staphylococcus aureus 122710-2 clinical isolate after 20 to 24 hrs by two-fold microdilution method
[16] = test system: Staphylococcus aureus; assay: Antibacterial activity against methicillin-resistant Staphylococcus aureus 122820-2 clinical isolate after 20 to 24 hrs by two-fold microdilution method
[17] = test system: Staphylococcus aureus; assay: Antibacterial activity against methicillin-resistant Staphylococcus aureus 11819 clinical isolate after 20 to 24 hrs by two-fold microdilution method
[18] = test system: Staphylococcus aureus; assay: Antibacterial activity against methicillin-resistant Staphylococcus aureus 12308 clinical isolate after 20 to 24 hrs by two-fold microdilution method
[19] = test system: Staphylococcus aureus; assay: Antibacterial activity against methicillin-resistant Staphylococcus aureus 130031 clinical isolate after 20 to 24 hrs by two-fold microdilution method
[20] = test system: Staphylococcus aureus; assay: Antibacterial activity against methicillin-resistant Staphylococcus aureus 221022 clinical isolate after 20 to 24 hrs by two-fold microdilution method
[21] = test system: Staphylococcus aureus; assay: Antibacterial activity against methicillin-resistant Staphylococcus aureus 221014 clinical isolate after 20 to 24 hrs by two-fold microdilution method
[22] = test system: Staphylococcus aureus; assay: Antibacterial activity against methicillin-resistant Staphylococcus aureus 316031 clinical isolate after 20 to 24 hrs by two-fold microdilution method
[23] = test system: Staphylococcus aureus; assay: Antibacterial activity against methicillin-resistant Staphylococcus aureus 3250299 clinical isolate after 20 to 24 hrs by two-fold microdilution method
[24] = test system: Staphylococcus aureus; assay: Antibacterial activity against methicillin-resistant Staphylococcus aureus 519238 clinical isolate after 20 to 24 hrs by two-fold microdilution method
[25] = test system: Staphylococcus aureus; assay: Antibacterial activity against methicillin-resistant Staphylococcus aureus 519030 clinical isolate after 20 to 24 hrs by two-fold microdilution method
[26] = test system: Staphylococcus aureus; assay: Antibacterial activity against methicillin-resistant Staphylococcus aureus 523005 clinical isolate after 20 to 24 hrs by two-fold microdilution method
[27] = test system: Staphylococcus aureus; assay: Antibacterial activity against methicillin-resistant Staphylococcus aureus 531026 clinical isolate after 20 to 24 hrs by two-fold microdilution method
[28] = test system: Staphylococcus aureus; assay: Antibacterial activity against methicillin-resistant Staphylococcus aureus 614019 clinical isolate after 20 to 24 hrs by two-fold microdilution method
[29] = test system: Staphylococcus aureus; assay: Antibacterial activity against methicillin-resistant Staphylococcus aureus 921026 clinical isolate after 20 to 24 hrs by two-fold microdilution method
[30] = test system: Staphylococcus aureus; assay: Antibacterial activity against methicillin-resistant Staphylococcus aureus 112106 clinical isolate after 20 to 24 hrs by two-fold microdilution method
[31] = test system: Staphylococcus aureus; assay: Antibacterial activity against methicillin-resistant Staphylococcus aureus 822030 clinical isolate after 20 to 24 hrs by two-fold microdilution method
[32] = test system: Staphylococcus aureus; assay: Antibacterial activity against methicillin-resistant Staphylococcus aureus 831024 clinical isolate after 20 to 24 hrs by two-fold microdilution method
[33] = test system: Staphylococcus aureus; assay: Antibacterial activity against methicillin-resistant Staphylococcus aureus 1012039 clinical isolate after 20 to 24 hrs by two-fold microdilution method
[34] = test system: Staphylococcus aureus; assay: Antibacterial activity against methicillin-resistant Staphylococcus aureus 1019240 clinical isolate after 20 to 24 hrs by two-fold microdilution method
[35] = test system: Staphylococcus aureus; assay: Antibacterial activity against methicillin-resistant Staphylococcus aureus 1023043 clinical isolate after 20 to 24 hrs by two-fold microdilution method
[36] = test system: Staphylococcus aureus; assay: Antibacterial activity against methicillin-resistant Staphylococcus aureus 1101016 clinical isolate after 20 to 24 hrs by two-fold microdilution method
[37] = test system: Staphylococcus aureus; assay: Antibacterial activity against methicillin-resistant Staphylococcus aureus 1107027 clinical isolate after 20 to 24 hrs by two-fold microdilution method
[38] = test system: Staphylococcus aureus; assay: Antibacterial activity against methicillin-resistant Staphylococcus aureus 1106003 clinical isolate after 20 to 24 hrs by two-fold microdilution method
[39] = test system: Staphylococcus aureus; assay: Antibacterial activity against methicillin-resistant Staphylococcus aureus 1108204 clinical isolate after 20 to 24 hrs by two-fold microdilution method
[40] = test system: Staphylococcus aureus; assay: Antibacterial activity against methicillin-resistant Staphylococcus aureus 1113041 clinical isolate after 20 to 24 hrs by two-fold microdilution method
[41] = test system: Staphylococcus aureus; assay: Antibacterial activity against methicillin-resistant Staphylococcus aureus 1128040 clinical isolate after 20 to 24 hrs by two-fold microdilution method
[42] = test system: Staphylococcus aureus; assay: Antibacterial activity against methicillin-resistant Staphylococcus aureus 109244 clinical isolate after 20 to 24 hrs by two-fold microdilution method
[43] = test system: Staphylococcus aureus; assay: Antibacterial activity against methicillin-resistant Staphylococcus aureus 112047 clinical isolate after 20 to 24 hrs by two-fold microdilution method
[44] = test system: Staphylococcus aureus; assay: Antibacterial activity against methicillin-resistant Staphylococcus aureus 118038 clinical isolate after 20 to 24 hrs by two-fold microdilution method
[45] = test system: Staphylococcus aureus; assay: Antibacterial activity against methicillin-resistant Staphylococcus aureus 121026 clinical isolate after 20 to 24 hrs by two-fold microdilution method
[46] = test system: Staphylococcus aureus; assay: Antibacterial activity against methicillin-resistant Staphylococcus aureus 125025 clinical isolate after 20 to 24 hrs by two-fold microdilution method
[47] = test system: Staphylococcus aureus; assay: Antibacterial activity against methicillin-resistant Staphylococcus aureus 304243 clinical isolate after 20 to 24 hrs by two-fold microdilution method

## O=C1c2cccnc2C(=O)c2c1c(C(=O)OCCCCCCN1CCCCC1)c1ccc(Br)cn21
[1]
  MIC: 2 µg/mL (≈ 3.71 µM)
[2]
  MIC: 0.125 µg/mL (≈ 0.232 µM)
[3]
  MIC: 0.5 µg/mL (≈ 0.929 µM)
[4]
  MIC: ≤ 7.8 ng/mL
[5]
  MIC: 0.125 µg/mL (≈ 0.232 µM)
[6]
  MIC: 0.016 µg/mL (≈ 0.0297 µM)
[7]
  MIC: 0.031 µg/mL (≈ 0.0576 µM)
[8]
  MIC: ≤ 0.0078 µg/mL
[9]
  MIC: ≤ 0.0078 µg/mL
[10]
  MIC: 0.016 µg/mL (≈ 0.0297 µM)
[11]
  MIC: 0.031 µg/mL (≈ 0.0576 µM)
[12]
  MIC: 0.063 µg/mL (≈ 0.117 µM)
[13]
  MIC: 0.063 µg/mL (≈ 0.117 µM)
[14]
  MIC: 0.063 µg/mL (≈ 0.117 µM)
[15]
  MIC: 0.031 µg/mL (≈ 0.0576 µM)
[16]
  MIC: 0.063 µg/mL (≈ 0.117 µM)
[17]
  MIC: 0.063 µg/mL (≈ 0.117 µM)
[18]
  MIC: 0.063 µg/mL (≈ 0.117 µM)
[19]
  MIC: 0.125 µg/mL (≈ 0.232 µM)
[20]
  MIC: 0.125 µg/mL (≈ 0.232 µM)
[21]
  MIC: 0.125 µg/mL (≈ 0.232 µM)
[22]
  MIC: 0.125 µg/mL (≈ 0.232 µM)
[23]
  MIC: 0.063 µg/mL (≈ 0.117 µM)
[24]
  MIC: 0.125 µg/mL (≈ 0.232 µM)
[25]
  MIC: 0.063 µg/mL (≈ 0.117 µM)
[26]
  MIC: 0.125 µg/mL (≈ 0.232 µM)
[27]
  MIC: 0.063 µg/mL (≈ 0.117 µM)
[28]
  MIC: 0.063 µg/mL (≈ 0.117 µM)
[29]
  MIC: 0.063 µg/mL (≈ 0.117 µM)
[30]
  MIC: 0.063 µg/mL (≈ 0.117 µM)
[31]
  MIC: 0.125 µg/mL (≈ 0.232 µM)
[32]
  MIC: 0.063 µg/mL (≈ 0.117 µM)
[33]
  MIC: 0.063 µg/mL (≈ 0.117 µM)
[34]
  MIC: 0.125 µg/mL (≈ 0.232 µM)
[35]
  MIC: 0.125 µg/mL (≈ 0.232 µM)
[36]
  MIC: 0.063 µg/mL (≈ 0.117 µM)
[37]
  MIC: 0.063 µg/mL (≈ 0.117 µM)
[38]
  MIC: 16 µg/mL (≈ 29.7 µM)
[39]
  MIC: 0.063 µg/mL (≈ 0.117 µM)
[40]
  MIC: 0.031 µg/mL (≈ 0.0576 µM)
[41]
  MIC: 0.063 µg/mL (≈ 0.117 µM)
[42]
  MIC: 0.031 µg/mL (≈ 0.0576 µM)
[43]
  MIC: 0.031 µg/mL (≈ 0.0576 µM)
[44]
  MIC: 0.063 µg/mL (≈ 0.117 µM)
[45]
  MIC: 0.031 µg/mL (≈ 0.0576 µM)
[46]
  MIC: 0.125 µg/mL (≈ 0.232 µM)
[47]
  MIC: 0.016 µg/mL (≈ 0.0297 µM)

## O=C1c2cccnc2C(=O)c2c1c(C(=O)OCCCCN1CCOCC1)c1ccc(Br)cn21
[1]
  MIC: > 16 µg/mL
[2]
  MIC: 0.125 µg/mL (≈ 0.244 µM)
[3]
  MIC: 4 µg/mL (≈ 7.81 µM)
[4]
  MIC: ≤ 7.8 ng/mL
[5]
  MIC: 0.25 µg/mL (≈ 0.488 µM)
[6]
  MIC: 0.063 µg/mL (≈ 0.123 µM)
[7]
  MIC: 0.125 µg/mL (≈ 0.244 µM)
[8]
  MIC: 0.063 µg/mL (≈ 0.123 µM)
[9]
  MIC: 0.063 µg/mL (≈ 0.123 µM)
[10]
  MIC: 0.5 µg/mL (≈ 0.976 µM)
[11]
  MIC: 0.5 µg/mL (≈ 0.976 µM)
[12]
  MIC: 0.5 µg/mL (≈ 0.976 µM)
[13]
  MIC: 0.5 µg/mL (≈ 0.976 µM)
[14]
  MIC: 0.5 µg/mL (≈ 0.976 µM)
[15]
  MIC: 0.25 µg/mL (≈ 0.488 µM)
[16]
  MIC: 0.125 µg/mL (≈ 0.244 µM)
[17]
  MIC: 0.125 µg/mL (≈ 0.244 µM)
[18]
  MIC: 0.25 µg/mL (≈ 0.488 µM)
[19]
  MIC: 1 µg/mL (≈ 1.95 µM)
[20]
  MIC: 0.5 µg/mL (≈ 0.976 µM)
[21]
  MIC: 1 µg/mL (≈ 1.95 µM)
[22]
  MIC: 0.5 µg/mL (≈ 0.976 µM)
[23]
  MIC: 0.5 µg/mL (≈ 0.976 µM)
[24]
  MIC: 0.5 µg/mL (≈ 0.976 µM)
[25]
  MIC: 1 µg/mL (≈ 1.95 µM)
[26]
  MIC: 0.5 µg/mL (≈ 0.976 µM)
[27]
  MIC: 0.25 µg/mL (≈ 0.488 µM)
[28]
  MIC: 0.5 µg/mL (≈ 0.976 µM)
[29]
  MIC: 0.5 µg/mL (≈ 0.976 µM)
[30]
  MIC: 0.5 µg/mL (≈ 0.976 µM)
[31]
  MIC: 0.5 µg/mL (≈ 0.976 µM)
[32]
  MIC: 0.5 µg/mL (≈ 0.976 µM)
[33]
  MIC: 0.5 µg/mL (≈ 0.976 µM)
[34]
  MIC: 1 µg/mL (≈ 1.95 µM)
[35]
  MIC: 0.25 µg/mL (≈ 0.488 µM)
[36]
  MIC: 0.25 µg/mL (≈ 0.488 µM)
[37]
  MIC: 0.25 µg/mL (≈ 0.488 µM)
[38]
  MIC: 16 µg/mL (≈ 31.2 µM)
[39]
  MIC: 0.5 µg/mL (≈ 0.976 µM)
[40]
  MIC: 0.5 µg/mL (≈ 0.976 µM)
[41]
  MIC: 0.25 µg/mL (≈ 0.488 µM)
[42]
  MIC: 0.25 µg/mL (≈ 0.488 µM)
[43]
  MIC: 0.25 µg/mL (≈ 0.488 µM)
[44]
  MIC: 0.5 µg/mL (≈ 0.976 µM)
[45]
  MIC: 0.25 µg/mL (≈ 0.488 µM)
[46]
  MIC: 0.25 µg/mL (≈ 0.488 µM)
[47]
  MIC: 0.125 µg/mL (≈ 0.244 µM)

Reference: ChEMBL document CHEMBL4004803, “Syntheses and antibacterial activity of soluble 9-bromo substituted indolizinoquinoline-5,12-dione derivatives” (Eur J Med Chem, 2017)
